# Active and inactive are the calls of the source.
# Columns and labels:
# [1] = test system: BJ; test: cytotoxicity toward BJ-TERT fibroblasts, dose response, cell-based, RAS-independent, luminescence (AID 1933); assay type: functional; conditions: Homo sapiens
# [2] = test system: BJ; test: cells; assay type: functional, cell-based; conditions: Homo sapiens
# [3] = test system: BJ; test: cytotoxicity toward BJ-TERT-LT-ST fibroblasts, dose response, cell-based, RAS-independent, luminescence (AID 1935); assay type: functional; conditions: Homo sapiens;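 note: BJ fibroblasts immortalized with TERT plus LT and ST oncogenes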
# [4] = cytotoxicity toward DRD oncogenic fibroblasts, dose response, cell-based, non-viral oncogenic, luminescence (AID 1934); assay type: functional; conditions: Homo sapiens
# [5] = target: T1, Calpain-2 catalytic subunit (Sus scrofa, UniProt P43367); test: pig calpain II inhibitor potency, dose response, biochemical, fluorogenic peptide substrate (AID 1420); assay type: functional
# T1 sequence (P43367 whole entry): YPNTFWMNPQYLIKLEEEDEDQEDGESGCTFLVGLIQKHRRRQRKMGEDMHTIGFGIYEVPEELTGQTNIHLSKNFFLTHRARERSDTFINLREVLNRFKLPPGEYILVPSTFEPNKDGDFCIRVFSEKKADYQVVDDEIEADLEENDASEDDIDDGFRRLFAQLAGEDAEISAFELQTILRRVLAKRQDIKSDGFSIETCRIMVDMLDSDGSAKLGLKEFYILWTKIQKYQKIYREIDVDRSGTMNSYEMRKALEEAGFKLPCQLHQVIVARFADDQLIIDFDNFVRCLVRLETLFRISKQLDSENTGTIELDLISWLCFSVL
# [6] = target: T2, Replicative DNA helicase DnaB (Mycobacterium tuberculosis, UniProt P9WMR3); test: DnaB intein splicing inhibitors, dose response, biochemical, cell-free fluorescence (AID 449749); assay type: functional
# T2 sequence (P9WMR3 whole entry): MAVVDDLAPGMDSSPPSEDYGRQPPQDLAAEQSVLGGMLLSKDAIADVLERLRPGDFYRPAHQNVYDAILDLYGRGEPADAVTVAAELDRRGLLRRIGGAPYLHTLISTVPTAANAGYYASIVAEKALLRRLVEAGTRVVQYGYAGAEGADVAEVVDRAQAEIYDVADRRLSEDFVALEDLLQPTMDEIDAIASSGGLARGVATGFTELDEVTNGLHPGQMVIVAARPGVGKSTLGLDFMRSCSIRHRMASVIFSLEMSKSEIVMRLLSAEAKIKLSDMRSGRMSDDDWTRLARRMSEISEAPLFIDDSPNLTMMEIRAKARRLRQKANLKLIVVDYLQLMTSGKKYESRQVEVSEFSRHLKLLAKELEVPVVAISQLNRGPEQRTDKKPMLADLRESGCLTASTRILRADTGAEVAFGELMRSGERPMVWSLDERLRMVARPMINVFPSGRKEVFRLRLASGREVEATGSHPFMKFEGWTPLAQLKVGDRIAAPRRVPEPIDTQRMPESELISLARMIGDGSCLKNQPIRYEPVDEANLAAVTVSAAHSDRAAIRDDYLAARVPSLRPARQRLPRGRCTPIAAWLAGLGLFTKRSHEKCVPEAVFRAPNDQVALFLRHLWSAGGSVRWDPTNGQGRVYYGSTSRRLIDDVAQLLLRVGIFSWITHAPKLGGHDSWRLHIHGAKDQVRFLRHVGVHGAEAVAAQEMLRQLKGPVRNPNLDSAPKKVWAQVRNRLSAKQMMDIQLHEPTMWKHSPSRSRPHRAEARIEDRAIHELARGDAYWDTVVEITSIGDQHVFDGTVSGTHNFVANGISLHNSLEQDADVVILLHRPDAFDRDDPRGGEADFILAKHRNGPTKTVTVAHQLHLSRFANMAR
# [7] = target: T3, Protein RecA (Mycobacterium tuberculosis, UniProt P9WHJ3); test: Fluorescence Cell-Free Homogeneous Dose Retest to Identify Inhibitors of RecA-Intein Splicing Activity. [Related pubchem assays (depositor defined):AID2097, AID2223, AID489010, AID492950]; assay type: functional
# T3 sequence (P9WHJ3 whole entry): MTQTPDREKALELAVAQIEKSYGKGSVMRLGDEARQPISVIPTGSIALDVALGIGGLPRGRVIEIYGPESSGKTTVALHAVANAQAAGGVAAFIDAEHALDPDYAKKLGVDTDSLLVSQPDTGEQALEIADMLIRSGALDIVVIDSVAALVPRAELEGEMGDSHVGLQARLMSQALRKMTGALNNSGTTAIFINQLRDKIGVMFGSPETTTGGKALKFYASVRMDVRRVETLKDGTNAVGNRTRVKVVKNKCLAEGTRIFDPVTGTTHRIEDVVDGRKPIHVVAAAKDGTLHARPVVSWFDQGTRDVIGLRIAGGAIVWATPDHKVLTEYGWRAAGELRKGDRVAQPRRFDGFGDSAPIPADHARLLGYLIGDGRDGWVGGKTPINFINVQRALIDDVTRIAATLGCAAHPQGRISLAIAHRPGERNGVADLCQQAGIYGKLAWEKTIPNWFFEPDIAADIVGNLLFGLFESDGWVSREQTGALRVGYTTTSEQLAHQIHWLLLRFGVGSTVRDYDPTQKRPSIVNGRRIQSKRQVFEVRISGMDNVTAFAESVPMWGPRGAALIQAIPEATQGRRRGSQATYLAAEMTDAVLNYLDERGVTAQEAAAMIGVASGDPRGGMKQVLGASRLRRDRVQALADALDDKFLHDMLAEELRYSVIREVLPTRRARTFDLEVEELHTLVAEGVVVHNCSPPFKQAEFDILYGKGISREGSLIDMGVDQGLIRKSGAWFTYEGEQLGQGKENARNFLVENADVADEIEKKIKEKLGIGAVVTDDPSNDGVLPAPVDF
# [8] = test system: H9c2; test: cells; assay type: functional, cell-based; conditions: Rattus norvegicus, H9c2, Myocardium;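 note: confirmatory concentration-response retest of ultra-high-throughput screening hits for modulation of myocardial damage; cell death induced by hydrogen peroxide oxidative stress; compound pretreatment for 60 min then peroxide exposure for 2 h; potency is for protecting the cells against peroxide damage rather than for killing them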
# [9] = target: T4, Methionyl-tRNA synthetase, putative (Trypanosoma brucei brucei, UniProt Q38C91); assay type: functional, Trypanosoma brucei brucei strain 927/4 GUTat10.1
# T4 sequence (Q38C91 whole entry): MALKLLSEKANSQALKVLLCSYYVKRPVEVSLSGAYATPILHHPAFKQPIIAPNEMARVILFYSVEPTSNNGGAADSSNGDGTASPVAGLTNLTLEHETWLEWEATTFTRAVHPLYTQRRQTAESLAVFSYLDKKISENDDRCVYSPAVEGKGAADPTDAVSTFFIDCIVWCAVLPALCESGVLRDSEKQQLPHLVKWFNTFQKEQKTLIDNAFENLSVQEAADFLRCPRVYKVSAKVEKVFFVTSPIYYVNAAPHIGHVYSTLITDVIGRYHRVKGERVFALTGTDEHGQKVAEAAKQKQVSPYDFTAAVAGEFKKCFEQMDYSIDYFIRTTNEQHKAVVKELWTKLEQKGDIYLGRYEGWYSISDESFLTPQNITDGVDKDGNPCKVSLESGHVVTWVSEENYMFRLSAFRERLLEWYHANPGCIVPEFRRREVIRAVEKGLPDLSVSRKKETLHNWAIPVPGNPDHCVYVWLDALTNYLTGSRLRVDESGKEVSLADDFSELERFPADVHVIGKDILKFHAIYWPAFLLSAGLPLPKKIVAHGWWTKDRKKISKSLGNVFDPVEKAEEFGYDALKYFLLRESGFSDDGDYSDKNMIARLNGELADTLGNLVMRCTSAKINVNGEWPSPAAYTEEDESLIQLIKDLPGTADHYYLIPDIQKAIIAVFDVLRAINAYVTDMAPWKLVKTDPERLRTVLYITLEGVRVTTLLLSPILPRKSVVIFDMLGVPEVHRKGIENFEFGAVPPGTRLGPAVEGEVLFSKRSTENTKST
# [10] = Counterscreen for inhibitors of Trypanosoma brucei methionyl tRNA synthetase (MetRS): Luminescence-based cell-based high throughput dose response assay to identify compounds that are cytotoxic to Jurkat human T lymphocyte cells.; assay type: functional
# [11] = target: T4, Methionyl-tRNA synthetase, putative; assay type: functional, Trypanosoma brucei brucei strain 927/4 GUTat10.1; remark: listed apart in the source
# [12] = target: Ras and Rab interactor 1/Tyrosine-protein kinase ABL1 (Homo sapiens, UniProt P00519+Q13671); assay type: functional;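 note: biochemical TR-FRET dose-response test measuring inhibition of binding between Rin1 and Abl proteins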
# Ras and Rab interactor 1/Tyrosine-protein kinase ABL1, sequence (P00519 whole entry): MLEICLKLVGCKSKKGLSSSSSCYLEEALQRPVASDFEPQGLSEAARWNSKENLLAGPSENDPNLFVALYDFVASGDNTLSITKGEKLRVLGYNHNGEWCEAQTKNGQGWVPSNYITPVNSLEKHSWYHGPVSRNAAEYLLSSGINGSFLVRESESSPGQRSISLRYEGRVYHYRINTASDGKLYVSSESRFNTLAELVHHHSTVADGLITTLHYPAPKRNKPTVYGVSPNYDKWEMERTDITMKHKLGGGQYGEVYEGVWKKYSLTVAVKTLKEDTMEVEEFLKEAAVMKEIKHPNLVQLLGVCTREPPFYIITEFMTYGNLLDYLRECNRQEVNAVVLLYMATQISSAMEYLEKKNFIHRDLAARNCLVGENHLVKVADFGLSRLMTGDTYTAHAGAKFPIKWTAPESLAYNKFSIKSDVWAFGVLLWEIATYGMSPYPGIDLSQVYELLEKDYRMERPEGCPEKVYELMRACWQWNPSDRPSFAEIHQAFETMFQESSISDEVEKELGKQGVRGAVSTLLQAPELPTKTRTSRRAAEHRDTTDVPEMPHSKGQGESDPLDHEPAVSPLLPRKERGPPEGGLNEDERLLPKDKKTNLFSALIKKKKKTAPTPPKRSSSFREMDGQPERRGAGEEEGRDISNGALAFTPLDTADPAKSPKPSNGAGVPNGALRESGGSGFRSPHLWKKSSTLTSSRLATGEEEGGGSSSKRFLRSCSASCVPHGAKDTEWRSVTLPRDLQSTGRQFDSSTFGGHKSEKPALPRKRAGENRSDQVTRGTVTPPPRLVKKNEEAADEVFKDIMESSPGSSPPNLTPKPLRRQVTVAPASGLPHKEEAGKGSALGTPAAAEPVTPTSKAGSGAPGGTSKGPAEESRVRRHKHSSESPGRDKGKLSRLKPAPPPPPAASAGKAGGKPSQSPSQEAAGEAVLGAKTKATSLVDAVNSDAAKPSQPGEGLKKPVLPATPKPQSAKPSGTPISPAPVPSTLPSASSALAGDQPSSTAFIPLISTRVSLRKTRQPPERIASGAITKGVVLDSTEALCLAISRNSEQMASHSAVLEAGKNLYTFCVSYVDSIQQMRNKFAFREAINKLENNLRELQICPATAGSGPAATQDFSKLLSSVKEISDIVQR
# Ras and Rab interactor 1/Tyrosine-protein kinase ABL1, sequence (Q13671 whole entry): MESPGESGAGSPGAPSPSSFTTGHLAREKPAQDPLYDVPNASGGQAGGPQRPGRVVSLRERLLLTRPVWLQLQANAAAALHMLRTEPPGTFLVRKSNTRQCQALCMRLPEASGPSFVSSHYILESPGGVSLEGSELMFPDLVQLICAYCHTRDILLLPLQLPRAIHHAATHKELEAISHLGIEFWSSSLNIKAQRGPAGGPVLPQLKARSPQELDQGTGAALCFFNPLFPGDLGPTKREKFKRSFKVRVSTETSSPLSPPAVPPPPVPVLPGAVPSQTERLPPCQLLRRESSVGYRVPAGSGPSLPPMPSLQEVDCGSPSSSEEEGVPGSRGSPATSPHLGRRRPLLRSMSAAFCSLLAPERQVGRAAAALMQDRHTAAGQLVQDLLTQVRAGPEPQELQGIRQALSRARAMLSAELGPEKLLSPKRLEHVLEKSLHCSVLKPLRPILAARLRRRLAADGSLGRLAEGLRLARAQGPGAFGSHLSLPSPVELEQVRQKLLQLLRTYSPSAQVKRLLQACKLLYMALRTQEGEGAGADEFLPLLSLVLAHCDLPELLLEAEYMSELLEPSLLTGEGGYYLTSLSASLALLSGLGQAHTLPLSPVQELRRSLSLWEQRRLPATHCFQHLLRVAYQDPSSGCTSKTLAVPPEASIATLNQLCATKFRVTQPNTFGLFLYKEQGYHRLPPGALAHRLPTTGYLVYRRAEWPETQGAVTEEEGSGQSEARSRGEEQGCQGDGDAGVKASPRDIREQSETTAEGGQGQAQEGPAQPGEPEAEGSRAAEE
# [13] = cytotoxicity in HEK-293T cells, dose response, cytotoxicity control for TCR NF-kB inhibitor project, luminescence, T-cell screen hits (AID 489026); assay type: functional, cell-based;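 note: cells exposed to compound about 14 hours before the viability readout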
# [14] = target: T5, Voltage-gated N-type calcium channel alpha-1B subunit/Amyloid beta A4 precursor protein-binding family A member 1 (Homo sapiens, UniProt Q00975+Q02410); assay type: protein assay
# T5 sequence (Q00975 whole entry): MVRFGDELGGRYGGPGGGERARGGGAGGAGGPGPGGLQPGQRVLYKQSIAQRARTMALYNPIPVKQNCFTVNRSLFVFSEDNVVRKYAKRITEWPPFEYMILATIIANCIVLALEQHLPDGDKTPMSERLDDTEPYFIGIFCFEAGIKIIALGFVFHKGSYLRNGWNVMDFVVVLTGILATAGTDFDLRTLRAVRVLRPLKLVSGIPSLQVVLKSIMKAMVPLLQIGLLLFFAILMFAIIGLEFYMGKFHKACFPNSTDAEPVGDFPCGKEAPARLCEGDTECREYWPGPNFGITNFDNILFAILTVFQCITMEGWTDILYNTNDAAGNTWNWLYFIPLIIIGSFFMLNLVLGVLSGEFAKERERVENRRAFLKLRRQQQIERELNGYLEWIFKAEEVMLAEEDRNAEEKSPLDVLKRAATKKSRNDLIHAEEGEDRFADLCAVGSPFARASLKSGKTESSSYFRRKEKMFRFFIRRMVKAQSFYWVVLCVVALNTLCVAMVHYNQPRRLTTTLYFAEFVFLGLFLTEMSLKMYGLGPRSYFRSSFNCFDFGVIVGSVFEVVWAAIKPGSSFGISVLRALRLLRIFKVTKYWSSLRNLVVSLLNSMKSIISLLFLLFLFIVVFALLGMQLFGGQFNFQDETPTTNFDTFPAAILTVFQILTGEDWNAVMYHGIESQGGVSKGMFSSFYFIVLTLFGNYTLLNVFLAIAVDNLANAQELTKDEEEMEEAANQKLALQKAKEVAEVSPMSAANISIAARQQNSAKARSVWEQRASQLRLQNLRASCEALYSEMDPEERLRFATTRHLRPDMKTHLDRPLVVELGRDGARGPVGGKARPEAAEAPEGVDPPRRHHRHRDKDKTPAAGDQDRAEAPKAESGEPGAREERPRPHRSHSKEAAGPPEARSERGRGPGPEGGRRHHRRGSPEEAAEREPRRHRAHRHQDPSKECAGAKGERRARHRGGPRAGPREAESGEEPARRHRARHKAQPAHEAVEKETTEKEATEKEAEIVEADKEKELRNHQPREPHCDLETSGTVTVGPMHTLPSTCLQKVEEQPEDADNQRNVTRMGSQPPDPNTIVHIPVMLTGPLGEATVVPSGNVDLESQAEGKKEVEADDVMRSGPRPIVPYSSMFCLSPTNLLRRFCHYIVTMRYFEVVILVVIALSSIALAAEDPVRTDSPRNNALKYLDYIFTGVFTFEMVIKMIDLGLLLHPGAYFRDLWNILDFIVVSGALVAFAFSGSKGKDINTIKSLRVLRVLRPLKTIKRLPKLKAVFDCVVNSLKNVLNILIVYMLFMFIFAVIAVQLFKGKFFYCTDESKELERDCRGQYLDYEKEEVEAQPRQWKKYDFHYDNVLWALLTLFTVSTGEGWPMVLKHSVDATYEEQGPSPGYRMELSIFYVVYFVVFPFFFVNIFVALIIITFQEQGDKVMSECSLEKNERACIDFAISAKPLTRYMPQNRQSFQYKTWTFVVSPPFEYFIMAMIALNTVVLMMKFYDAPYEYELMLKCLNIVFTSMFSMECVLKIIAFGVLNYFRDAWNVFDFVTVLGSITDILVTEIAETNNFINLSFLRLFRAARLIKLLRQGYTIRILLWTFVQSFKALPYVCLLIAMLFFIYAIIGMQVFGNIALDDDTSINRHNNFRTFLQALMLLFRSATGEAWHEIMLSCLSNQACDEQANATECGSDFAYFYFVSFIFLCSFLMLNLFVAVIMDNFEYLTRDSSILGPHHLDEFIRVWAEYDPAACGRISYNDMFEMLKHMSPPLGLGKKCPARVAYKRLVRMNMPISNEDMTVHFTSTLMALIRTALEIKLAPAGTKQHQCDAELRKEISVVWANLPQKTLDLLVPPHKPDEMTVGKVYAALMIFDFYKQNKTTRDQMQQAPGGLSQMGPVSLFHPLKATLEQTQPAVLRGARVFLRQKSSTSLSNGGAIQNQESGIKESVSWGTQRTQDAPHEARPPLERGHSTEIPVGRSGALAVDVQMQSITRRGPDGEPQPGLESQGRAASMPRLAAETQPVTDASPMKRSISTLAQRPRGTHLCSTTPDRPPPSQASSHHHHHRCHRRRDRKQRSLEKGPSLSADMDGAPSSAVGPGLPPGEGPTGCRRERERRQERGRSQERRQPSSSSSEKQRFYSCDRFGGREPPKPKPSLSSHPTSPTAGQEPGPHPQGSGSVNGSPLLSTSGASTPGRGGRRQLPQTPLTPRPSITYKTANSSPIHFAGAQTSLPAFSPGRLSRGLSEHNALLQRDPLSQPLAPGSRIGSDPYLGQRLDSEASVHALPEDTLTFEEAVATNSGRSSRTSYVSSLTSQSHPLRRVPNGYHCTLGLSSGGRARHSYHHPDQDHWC
# T5 sequence (Q02410 whole entry): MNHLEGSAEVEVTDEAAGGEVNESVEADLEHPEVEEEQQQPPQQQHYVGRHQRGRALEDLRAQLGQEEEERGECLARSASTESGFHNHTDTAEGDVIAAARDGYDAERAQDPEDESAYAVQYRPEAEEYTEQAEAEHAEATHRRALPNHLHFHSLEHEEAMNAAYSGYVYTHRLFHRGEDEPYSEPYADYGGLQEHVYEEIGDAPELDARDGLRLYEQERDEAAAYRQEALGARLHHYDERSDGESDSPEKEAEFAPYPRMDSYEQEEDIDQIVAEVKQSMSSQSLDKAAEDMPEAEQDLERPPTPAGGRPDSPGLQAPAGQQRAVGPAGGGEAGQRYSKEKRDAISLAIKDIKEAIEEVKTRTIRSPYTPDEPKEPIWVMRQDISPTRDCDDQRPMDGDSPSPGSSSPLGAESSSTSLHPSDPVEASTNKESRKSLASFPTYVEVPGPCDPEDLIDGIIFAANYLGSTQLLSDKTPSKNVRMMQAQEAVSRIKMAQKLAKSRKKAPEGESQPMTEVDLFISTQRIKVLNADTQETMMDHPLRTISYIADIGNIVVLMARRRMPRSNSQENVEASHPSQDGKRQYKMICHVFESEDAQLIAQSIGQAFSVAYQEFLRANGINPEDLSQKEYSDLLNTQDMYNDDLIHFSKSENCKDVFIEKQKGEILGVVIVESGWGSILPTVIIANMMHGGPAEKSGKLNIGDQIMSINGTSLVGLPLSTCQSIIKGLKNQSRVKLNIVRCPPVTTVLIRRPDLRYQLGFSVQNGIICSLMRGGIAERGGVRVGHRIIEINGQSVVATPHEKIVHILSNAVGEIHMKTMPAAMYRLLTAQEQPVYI
# [15] = target: Large T antigen (Simian virus 40, UniProt P03070); assay type: functional, Betapolyomavirus macacae;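 note: Confirmatory-stage PubChem screen for compounds that inhibit SV40 T antigen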
# [16] = target: T5, Voltage-gated N-type calcium channel alpha-1B subunit/Amyloid beta A4 precursor protein-binding family A member 1; assay type: protein assay; remark: listed apart in the source
# [17] = Shn3 3'UTR reporter inhibitors, dose response, cell-based, Clone20 osteoblasts, firefly luciferase, cherry-picked (AID 624132); assay type: functional;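 note: firefly luciferase luminescence from reporter carrying the Shn3 3'UTR in osteoblasts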
# [18] = HepG2 cell cytotoxicity, dose response, cytotoxicity control for Shn3 inhibitor project, CellTiter-Glo, cherry-picked (AID 624134); assay type: functional, cell-based
# [19] = control 3'UTR Renilla luciferase suppression, dose response, counter-screen for Shn3 inhibitor project, cell-based, Clone20-Shn3RL, cherry-picked (AID 624133); assay type: functional
# [20] = target: T6, Leucine aminopeptidase (Plasmodium falciparum 3D7, UniProt Q8IL11); test: P. falciparum M17LAP inhibitors, primary screen, biochemical, fluorogenic H-Leu-NHMec substrate, 1536-well (AID 1619); assay type: functional
# T6 sequence (Q8IL11 whole entry): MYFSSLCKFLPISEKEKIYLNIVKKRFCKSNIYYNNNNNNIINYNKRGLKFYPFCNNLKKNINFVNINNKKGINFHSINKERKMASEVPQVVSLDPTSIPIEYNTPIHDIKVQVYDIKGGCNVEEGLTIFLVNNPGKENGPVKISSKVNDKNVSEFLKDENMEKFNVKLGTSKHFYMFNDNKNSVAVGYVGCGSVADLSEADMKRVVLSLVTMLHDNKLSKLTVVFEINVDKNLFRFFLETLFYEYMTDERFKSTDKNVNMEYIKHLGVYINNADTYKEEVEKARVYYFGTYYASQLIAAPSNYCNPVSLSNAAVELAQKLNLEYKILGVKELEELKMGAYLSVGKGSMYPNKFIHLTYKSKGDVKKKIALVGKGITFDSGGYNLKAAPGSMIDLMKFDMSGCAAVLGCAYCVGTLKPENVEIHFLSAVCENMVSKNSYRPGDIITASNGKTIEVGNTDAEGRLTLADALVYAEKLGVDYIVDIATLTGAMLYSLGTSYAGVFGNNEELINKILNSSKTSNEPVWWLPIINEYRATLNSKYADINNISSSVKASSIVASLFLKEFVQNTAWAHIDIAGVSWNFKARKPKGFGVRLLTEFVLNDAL
structure (smiles),measurement,setting,value
O=C(/C=C/c1ccco1)NC(=S)Nc1cccc(-c2nc3ccccc3o2)c1,EC50,[1],9.72 µM (active)
same,EC50,[2],88.3 µM (active)
same,EC50,[3],3.83 µM (active)
same,EC50,[4],12.1 µM (inconclusive)
O=[N+]([O-])c1ccc(Oc2cccc(F)c2)c2ccncc12,IC50,[5],3.5 µM (not active)
same,AC50,[6],> 380 µM (inactive)
same,EC50,[7],0.956 µM (active)
COc1cc(-c2cc(C(=O)NCc3ccco3)c3ccccc3n2)cc(OC)c1OC,IC50,[8],13.2 µM (active)
OC(c1cc(Cl)cc(Cl)c1)c1nc(-c2ccccc2C(F)(F)F)c[nH]1 (stereo unspecified),IC50,[9],4.05 µM (active)
same,IC50,[10],59.4 µM (inactive)
same,IC50,[11],2.88 µM (active)
N#CC12CCCCC1CC1CCCCC1(C#N)N2Cc1cccnc1 (stereo unspecified),IC50,[12],1.68 µM (active)
COc1cc(NS(=O)(=O)c2ccc(OC)c(C)c2C)c(OC)cc1Cl,IC50,[13],> 80 µM (inactive)
Cn1sc(=O)c2cc(S(=O)(=O)NC3CC3)ccc21,IC50,[14],15.6 µM (active)
same,IC50,[15],57.3 µM (active)
same,IC50,[16],9.45 µM (active)
NS(=O)(=O)c1ccc(CCNC(=O)c2cc(-c3cc(Cl)ccc3O)n[nH]2)cc1,IC50,[9],119 µM (inactive)
same,IC50,[11],14.4 µM (inactive)
COc1ccc(/C=C/C(=O)c2ccc(C(=O)/C=C/c3ccc(OC)c(OC)c3)cc2)cc1OC,EC50,[1],7.92 µM (active)
same,EC50,[2],27 µM (active)
same,EC50,[3],10.7 µM (inconclusive)
same,EC50,[4],10.4 µM (active)
same,AC50,[17],5.18 µM (active)
same,AC50,[18],69.1 µM (active)
same,AC50,[19],25.9 µM (active)
CC(=O)Nc1cccc(NC(=O)c2cc(-c3cccnc3)nc3ccc(Br)cc23)c1,IC50,[8],37.9 µM (inactive)
NS(=O)(=O)c1ccc(CCNC(=O)c2cc(-c3cc(Cl)ccc3O)[nH]n2)cc1,IC50,[10],43.3 µM (inactive)
CCc1ccc(C(=O)C(C)OC(=O)Cc2nnc(O)c3ccccc23)cc1 (stereo unspecified),EC50,[1],18.2 µM (active)
same,EC50,[2],49.9 µM (inconclusive)
same,EC50,[3],> 150 µM (inconclusive)
same,EC50,[4],17.9 µM (active)
O=C(O)C1CCCCC1C(=O)Nc1cc(C(F)(F)F)ccc1Cl (stereo unspecified),IC50,[20],17.5 µM (active)
COc1ccc(OC)c(C2CC(=O)c3c([nH]c(C(=O)OCC4CCCO4)c3C)C2)c1 (stereo unspecified),IC50,[8],21.1 µM (active)
CCc1nc2ccc(C(=O)Nc3cccc(OCC(=O)N(C)C)c3)cn2c1N(C)Cc1cc2ccccc2s1,IC50,[8],> 79 µM (inactive)
CCN(CC)C(=O)C(=O)c1cn(CC(=O)NCc2ccc3c(c2)OCO3)c2ccccc12,IC50,[9],14.4 µM (inactive)
same,IC50,[10],83.3 µM (inactive)
same,IC50,[11],4.83 µM (active)
Cc1ccccc1NC(=O)CN1C(=O)NC2(CCCCC2)C1=O,IC50,[20],71.9 µM (active)
O=C(/C=C/c1ccc([N+](=O)[O-])cc1)N(c1ccccn1)C1CCCCC1,IC50,[14],10.5 µM (active)
same,IC50,[16],29.1 µM (active)
CN(C)C(=O)CSc1nc(O)c2ccccc2n1,IC50,[8],> 79 µM (inactive)
OCCNc1ncnc2c1ncn2[C@H]1CN(Cc2ccc(-c3ccccc3)cc2)C[C@@H](CO)O1,IC50,[12],12.6 µM (inactive)
CCN(CC)C(=O)CSc1nc(Cc2ccccc2)nc2ccccc12,IC50,[12],> 73.4 µM (inactive)
COc1cccc(NC(=O)NC2(C(F)(F)F)Oc3ccccc3O2)c1,IC50,[8],> 79 µM (inactive)
CC(=O)Nc1ccc2c(c1)nc(O)c1ccccc12,IC50,[8],34 µM (inactive)
O=C(CC1SCCNC1=O)Nc1cccc(Cl)c1 (stereo unspecified),IC50,[12],20.8 µM (inactive)
